Reference: patent publication US20220132847A1, “CINNOLINIUM COMPOUNDS FOR USE IN A METHOD OF CONTROLLING UNWANTED PLANT GROWTH” (SYNGENTA CROP PROTECTION AG, priority 2019, published 2022)

tested on: Chenopodium album (CHEAL); experiment: Post-emergence efficacy, glasshouse; type: in vivo; details: Chenopodium album, post-emergence, 312 h, Application Rate 500 g/Ha; evaluated after 13 days; 100=total damage to plant, 0=no damage to plant; read-out: Control of weed species after post-emergence application, CHEAL
How it was run: (§1)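 Post-emergence spray on 14-day-old pot plants of the formulated compound (acetone/IF50, 50 g/l stock diluted in water with 0.25% or 1% Empicol ESC70 plus 1% ammonium sulphate). Glasshouse at 24/16° C day/night, 14 h light, 65% humidity; visual damage rated after 13 days, 0 none to 100 total.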

SMILES	pest or weed control at 500 g/ha [%]
CC(C)OP(=O)([O-])c1c[n+](C(C)C)nc2ccccc12 [Compound A76, isopropoxy-(2-isopropylcinnolin-2-ium-4-yl)phosphinate]	90

same assay, conditions: Chenopodium album, post-emergence, 312 h; Application Rate 1000 g/Ha; evaluated after 13 days; 100=total damage to plant, 0=no damage to plant; read-out: Control of weed species after post-emergence application, CHEAL

SMILES	pest or weed control at 1000 g/ha [%]
CN(C)S(=O)(=O)[N-]C(=O)c1c[n+](C)nc2ccccc12 [Compound A11]	60
COCC[n+]1cc(C(=O)[N-]S(C)(=O)=O)c2ccccc2n1 [Compound A24]	70
CS(=O)(=O)[N-]C(=O)c1c[n+](CCO)nc2ccccc12 [Compound A21]	70
C[n+]1cc(C(=O)[N-]S(=O)(=O)c2ccccc2)c2ccccc2n1 [Compound A35]	0
CCOP(=O)(O)c1c[n+](CCO)nc2ccccc12 [Compound A71]	90
CCCCCCCC[n+]1cc(C(=O)[N-]S(C)(=O)=O)c2ccccc2n1 [Compound A40]	70
CC(C)S(=O)(=O)[N-]C(=O)c1c[n+](C)nc2ccccc12 [Compound A34]	50

tested on: Eleusine indica (ELEIN); experiment: Post-emergence efficacy, glasshouse; type: in vivo; details: Eleusine indica, post-emergence, 312 h, Application Rate 500 g/Ha; evaluated after 13 days; 100=total damage to plant, 0=no damage to plant; read-out: Control of weed species after post-emergence application, ELEIN
How it was run: as §1

SMILES	pest or weed control at 500 g/ha [%]
CC(C)OP(=O)([O-])c1c[n+](C(C)C)nc2ccccc12 [Compound A76, isopropoxy-(2-isopropylcinnolin-2-ium-4-yl)phosphinate]	100

same assay, conditions: Eleusine indica, post-emergence, 312 h; Application Rate 1000 g/Ha; evaluated after 13 days; 100=total damage to plant, 0=no damage to plant; read-out: Control of weed species after post-emergence application, ELEIN

SMILES	pest or weed control at 1000 g/ha [%]
CN(C)S(=O)(=O)[N-]C(=O)c1c[n+](C)nc2ccccc12 [Compound A11]	30
COCC[n+]1cc(C(=O)[N-]S(C)(=O)=O)c2ccccc2n1 [Compound A24]	50
CS(=O)(=O)[N-]C(=O)c1c[n+](CCO)nc2ccccc12 [Compound A21]	80
C[n+]1cc(C(=O)[N-]S(=O)(=O)c2ccccc2)c2ccccc2n1 [Compound A35]	0
CCOP(=O)(O)c1c[n+](CCO)nc2ccccc12 [Compound A71]	90
CCCCCCCC[n+]1cc(C(=O)[N-]S(C)(=O)=O)c2ccccc2n1 [Compound A40]	10
CC(C)S(=O)(=O)[N-]C(=O)c1c[n+](C)nc2ccccc12 [Compound A34]	40

tested on: Amaranthus palmeri (AMAPA); experiment: Post-emergence efficacy, glasshouse; type: in vivo; details: Amaranthus palmeri, post-emergence, 312 h, Application Rate 500 g/Ha; evaluated after 13 days; 100=total damage to plant, 0=no damage to plant; read-out: Control of weed species after post-emergence application, AMAPA
How it was run: as §1

SMILES	pest or weed control at 500 g/ha [%]
CC(C)OP(=O)([O-])c1c[n+](C(C)C)nc2ccccc12 [Compound A76, isopropoxy-(2-isopropylcinnolin-2-ium-4-yl)phosphinate]	100

same assay, conditions: Amaranthus palmeri, post-emergence, 312 h; Application Rate 1000 g/Ha; evaluated after 13 days; 100=total damage to plant, 0=no damage to plant; read-out: Control of weed species after post-emergence application, AMAPA

SMILES	pest or weed control at 1000 g/ha [%]
CN(C)S(=O)(=O)[N-]C(=O)c1c[n+](C)nc2ccccc12 [Compound A11]	40
COCC[n+]1cc(C(=O)[N-]S(C)(=O)=O)c2ccccc2n1 [Compound A24]	70
CS(=O)(=O)[N-]C(=O)c1c[n+](CCO)nc2ccccc12 [Compound A21]	90
C[n+]1cc(C(=O)[N-]S(=O)(=O)c2ccccc2)c2ccccc2n1 [Compound A35]	20
CCOP(=O)(O)c1c[n+](CCO)nc2ccccc12 [Compound A71]	100
CCCCCCCC[n+]1cc(C(=O)[N-]S(C)(=O)=O)c2ccccc2n1 [Compound A40]	90
CC(C)S(=O)(=O)[N-]C(=O)c1c[n+](C)nc2ccccc12 [Compound A34]	20

tested on: Echinochloa crus-galli (ECHCG); experiment: Post-emergence efficacy, glasshouse; type: in vivo; details: Echinochloa crus-galli, post-emergence, 312 h, Application Rate 500 g/Ha; evaluated after 13 days; 100=total damage to plant, 0=no damage to plant; read-out: Control of weed species after post-emergence application, ECHCG
How it was run: as §1

SMILES	pest or weed control at 500 g/ha [%]
CC(C)OP(=O)([O-])c1c[n+](C(C)C)nc2ccccc12 [Compound A76, isopropoxy-(2-isopropylcinnolin-2-ium-4-yl)phosphinate]	70

same assay, conditions: Echinochloa crus-galli, post-emergence, 312 h; Application Rate 1000 g/Ha; evaluated after 13 days; 100=total damage to plant, 0=no damage to plant; read-out: Control of weed species after post-emergence application, ECHCG

SMILES	pest or weed control at 1000 g/ha [%]
CN(C)S(=O)(=O)[N-]C(=O)c1c[n+](C)nc2ccccc12 [Compound A11]	50
COCC[n+]1cc(C(=O)[N-]S(C)(=O)=O)c2ccccc2n1 [Compound A24]	50
CS(=O)(=O)[N-]C(=O)c1c[n+](CCO)nc2ccccc12 [Compound A21]	50
C[n+]1cc(C(=O)[N-]S(=O)(=O)c2ccccc2)c2ccccc2n1 [Compound A35]	0
CCOP(=O)(O)c1c[n+](CCO)nc2ccccc12 [Compound A71]	30
CCCCCCCC[n+]1cc(C(=O)[N-]S(C)(=O)=O)c2ccccc2n1 [Compound A40]	20
CC(C)S(=O)(=O)[N-]C(=O)c1c[n+](C)nc2ccccc12 [Compound A34]	20

tested on: Lolium perenne (LOLPE); experiment: Post-emergence efficacy, glasshouse; type: in vivo; details: Lolium perenne, post-emergence, 312 h, Application Rate 500 g/Ha; evaluated after 13 days; 100=total damage to plant, 0=no damage to plant; read-out: Control of weed species after post-emergence application, LOLPE
How it was run: as §1

SMILES	pest or weed control at 500 g/ha [%]
CC(C)OP(=O)([O-])c1c[n+](C(C)C)nc2ccccc12 [Compound A76, isopropoxy-(2-isopropylcinnolin-2-ium-4-yl)phosphinate]	50

same assay, conditions: Lolium perenne, post-emergence, 312 h; Application Rate 1000 g/Ha; evaluated after 13 days; 100=total damage to plant, 0=no damage to plant; read-out: Control of weed species after post-emergence application, LOLPE

SMILES	pest or weed control at 1000 g/ha [%]
CN(C)S(=O)(=O)[N-]C(=O)c1c[n+](C)nc2ccccc12 [Compound A11]	20
COCC[n+]1cc(C(=O)[N-]S(C)(=O)=O)c2ccccc2n1 [Compound A24]	20
CS(=O)(=O)[N-]C(=O)c1c[n+](CCO)nc2ccccc12 [Compound A21]	60
C[n+]1cc(C(=O)[N-]S(=O)(=O)c2ccccc2)c2ccccc2n1 [Compound A35]	0
CCOP(=O)(O)c1c[n+](CCO)nc2ccccc12 [Compound A71]	40
CCCCCCCC[n+]1cc(C(=O)[N-]S(C)(=O)=O)c2ccccc2n1 [Compound A40]	20
CC(C)S(=O)(=O)[N-]C(=O)c1c[n+](C)nc2ccccc12 [Compound A34]	0

tested on: Setaria faberi (SETFA); experiment: Post-emergence efficacy, glasshouse; type: in vivo; details: Setaria faberi, post-emergence, 312 h, Application Rate 500 g/Ha; evaluated after 13 days; 100=total damage to plant, 0=no damage to plant; read-out: Control of weed species after post-emergence application, SETFA
How it was run: as §1

SMILES	pest or weed control at 500 g/ha [%]
CC(C)OP(=O)([O-])c1c[n+](C(C)C)nc2ccccc12 [Compound A76, isopropoxy-(2-isopropylcinnolin-2-ium-4-yl)phosphinate]	80

same assay, conditions: Setaria faberi, post-emergence, 312 h; Application Rate 1000 g/Ha; evaluated after 13 days; 100=total damage to plant, 0=no damage to plant; read-out: Control of weed species after post-emergence application, SETFA

SMILES	pest or weed control at 1000 g/ha [%]
CN(C)S(=O)(=O)[N-]C(=O)c1c[n+](C)nc2ccccc12 [Compound A11]	50
COCC[n+]1cc(C(=O)[N-]S(C)(=O)=O)c2ccccc2n1 [Compound A24]	50
CS(=O)(=O)[N-]C(=O)c1c[n+](CCO)nc2ccccc12 [Compound A21]	90
C[n+]1cc(C(=O)[N-]S(=O)(=O)c2ccccc2)c2ccccc2n1 [Compound A35]	10
CCOP(=O)(O)c1c[n+](CCO)nc2ccccc12 [Compound A71]	100
CCCCCCCC[n+]1cc(C(=O)[N-]S(C)(=O)=O)c2ccccc2n1 [Compound A40]	40
CC(C)S(=O)(=O)[N-]C(=O)c1c[n+](C)nc2ccccc12 [Compound A34]	60

tested on: Ipomoea hederacea (IPOHE); experiment: Post-emergence efficacy, glasshouse; type: in vivo; details: Ipomoea hederacea, post-emergence, 312 h, Application Rate 500 g/Ha; evaluated after 13 days; 100=total damage to plant, 0=no damage to plant; read-out: Control of weed species after post-emergence application, IPOHE
How it was run: as §1

SMILES	pest or weed control at 500 g/ha [%]
CC(C)OP(=O)([O-])c1c[n+](C(C)C)nc2ccccc12 [Compound A76, isopropoxy-(2-isopropylcinnolin-2-ium-4-yl)phosphinate]	90

same assay, conditions: Ipomoea hederacea, post-emergence, 312 h; Application Rate 1000 g/Ha; evaluated after 13 days; 100=total damage to plant, 0=no damage to plant; read-out: Control of weed species after post-emergence application, IPOHE

SMILES	pest or weed control at 1000 g/ha [%]
CN(C)S(=O)(=O)[N-]C(=O)c1c[n+](C)nc2ccccc12 [Compound A11]	60
COCC[n+]1cc(C(=O)[N-]S(C)(=O)=O)c2ccccc2n1 [Compound A24]	60
CS(=O)(=O)[N-]C(=O)c1c[n+](CCO)nc2ccccc12 [Compound A21]	80
C[n+]1cc(C(=O)[N-]S(=O)(=O)c2ccccc2)c2ccccc2n1 [Compound A35]	20
CCOP(=O)(O)c1c[n+](CCO)nc2ccccc12 [Compound A71]	80
CCCCCCCC[n+]1cc(C(=O)[N-]S(C)(=O)=O)c2ccccc2n1 [Compound A40]	10
CC(C)S(=O)(=O)[N-]C(=O)c1c[n+](C)nc2ccccc12 [Compound A34]	50

tested on: Digitaria sanguinalis (DIGSA); experiment: Post-emergence efficacy, glasshouse; type: in vivo; details: Digitaria sanguinalis, post-emergence, 312 h, Application Rate 500 g/Ha; evaluated after 13 days; 100=total damage to plant, 0=no damage to plant; read-out: Control of weed species after post-emergence application, DIGSA
How it was run: as §1

SMILES	pest or weed control at 500 g/ha [%]
CC(C)OP(=O)([O-])c1c[n+](C(C)C)nc2ccccc12 [Compound A76, isopropoxy-(2-isopropylcinnolin-2-ium-4-yl)phosphinate]	80

same assay, conditions: Digitaria sanguinalis, post-emergence, 312 h; Application Rate 1000 g/Ha; evaluated after 13 days; 100=total damage to plant, 0=no damage to plant; read-out: Control of weed species after post-emergence application, DIGSA

SMILES	pest or weed control at 1000 g/ha [%]
CN(C)S(=O)(=O)[N-]C(=O)c1c[n+](C)nc2ccccc12 [Compound A11]	40
COCC[n+]1cc(C(=O)[N-]S(C)(=O)=O)c2ccccc2n1 [Compound A24]	40
CS(=O)(=O)[N-]C(=O)c1c[n+](CCO)nc2ccccc12 [Compound A21]	70
C[n+]1cc(C(=O)[N-]S(=O)(=O)c2ccccc2)c2ccccc2n1 [Compound A35]	10
CCOP(=O)(O)c1c[n+](CCO)nc2ccccc12 [Compound A71]	90
CCCCCCCC[n+]1cc(C(=O)[N-]S(C)(=O)=O)c2ccccc2n1 [Compound A40]	20
CC(C)S(=O)(=O)[N-]C(=O)c1c[n+](C)nc2ccccc12 [Compound A34]	30

tested on: Euphorbia heterophylla (EPHHL); experiment: Post-emergence efficacy, glasshouse; type: in vivo; details: Euphorbia heterophylla, post-emergence, 312 h, Application Rate 500 g/Ha; evaluated after 13 days; 100=total damage to plant, 0=no damage to plant; read-out: Control of weed species after post-emergence application, EPHHL
How it was run: as §1

SMILES	pest or weed control at 500 g/ha [%]
CC(C)OP(=O)([O-])c1c[n+](C(C)C)nc2ccccc12 [Compound A76, isopropoxy-(2-isopropylcinnolin-2-ium-4-yl)phosphinate]	100

same assay, conditions: Euphorbia heterophylla, post-emergence, 312 h; Application Rate 1000 g/Ha; evaluated after 13 days; 100=total damage to plant, 0=no damage to plant; read-out: Control of weed species after post-emergence application, EPHHL

SMILES	pest or weed control at 1000 g/ha [%]
CN(C)S(=O)(=O)[N-]C(=O)c1c[n+](C)nc2ccccc12 [Compound A11]	70
COCC[n+]1cc(C(=O)[N-]S(C)(=O)=O)c2ccccc2n1 [Compound A24]	40
CS(=O)(=O)[N-]C(=O)c1c[n+](CCO)nc2ccccc12 [Compound A21]	80
C[n+]1cc(C(=O)[N-]S(=O)(=O)c2ccccc2)c2ccccc2n1 [Compound A35]	40
CCOP(=O)(O)c1c[n+](CCO)nc2ccccc12 [Compound A71]	100
CCCCCCCC[n+]1cc(C(=O)[N-]S(C)(=O)=O)c2ccccc2n1 [Compound A40]	30
CC(C)S(=O)(=O)[N-]C(=O)c1c[n+](C)nc2ccccc12 [Compound A34]	60
